Measurements: PubChem BioAssay AID330 (DTP/NCI, 2004)
Inconclusive results and toxic doses are left out. The calls were made as follows: active = survival T/C of 150% or more; inactive = T/C below 125% in these data.

System: P388 leukemia ip, CD2F1 mice, survival T/C
Test: NCI In Vivo Anticancer Drug Screen. Data for tumor model P388 Leukemia (intraperitoneal) in CD2F1 (CDF1) mice
Details: endpoint: median survival time, higher = longer survival
Outline: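 Mice carrying the transplanted tumor received test compound or vehicle. Survival was recorded in each group, and the value is the treated-group measurement divided by that of the vehicle-treated control group.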

[1] = dose: 400.0 mg/kg/injection, schedule: Q04DX003 (ip), vehicle: saline
[2] = dose: 60.0 mg/kg/injection, schedule: Q01DX005 (ip), vehicle: saline with Tween-80
[3] = dose: 120.0 mg/kg/injection, schedule: Q01DX005 (ip), vehicle: saline with Tween-80
[4] = dose: 60.0 mg/kg/injection, schedule: Q01DX005 (ip), vehicle: Klucel (hydroxypropylcellulose) (HPC)
[5] = dose: 120.0 mg/kg/injection, schedule: Q01DX005 (ip), vehicle: Klucel (hydroxypropylcellulose) (HPC)
[6] = dose: 240.0 mg/kg/injection, schedule: Q01DX005 (ip), vehicle: Klucel (hydroxypropylcellulose) (HPC)
[7] = dose: 50.0 mg/kg/injection, schedule: Q01DX005 (ip), vehicle: saline with Tween-80
[8] = dose: 100.0 mg/kg/injection, schedule: Q01DX005 (ip), vehicle: saline with Tween-80
[9] = dose: 240.0 mg/kg/injection, schedule: Q01DX005 (ip), vehicle: saline with Tween-80
[10] = dose: 100.0 mg/kg/injection, schedule: Q01DX009 (ip), vehicle: saline with Tween-80

Measured: T/C

CC(C)(C)NC/C(C#N)=C\c1ccccc1
inactive: dose: 25.0 mg/kg/injection, schedule: Q01DX001 (ip), vehicle: saline with Tween-80 102 % of control | dose: 50.0 mg/kg/injection, schedule: Q01DX001 (ip), vehicle: saline with Tween-80 99 % of control | dose: 100.0 mg/kg/injection, schedule: Q01DX001 (ip), vehicle: saline with Tween-80 97 % of control

C=CC(O)CC#N (stereo not given)
inactive: dose: 18.75 mg/kg/injection, schedule: Q01DX009 (ip), vehicle: saline with Tween-80 102 % of control | dose: 37.5 mg/kg/injection, schedule: Q01DX009 (ip), vehicle: saline with Tween-80 102 % of control | dose: 75.0 mg/kg/injection, schedule: Q01DX009 (ip), vehicle: saline with Tween-80 108 % of control

C=COc1ccccc1C1=NC(C(C)(C)C)(C(C)(C)C)P(OC)(OC)(OC)O1
inactive: dose: 100.0 mg/kg/injection, schedule: Q04DX003 (ip), vehicle: saline 102 % of control | dose: 200.0 mg/kg/injection, schedule: Q04DX003 (ip), vehicle: saline 108 % of control | [1] 100 % of control

CCOP(=O)(OCC)C(C#N)OC(C)(C)C (stereo not given)
inactive: [2] 109 % of control | [3] 93 % of control

O=C(O)c1cnc2cc3c(cc2c1Nc1cccc(Cl)c1)OCO3
inactive: [4] 93 % of control | [5] 105 % of control | [6] 106 % of control

Nc1ccc(NCCC2CCCN3CCCCC23)c2c(=O)c3ccccc3sc12 (stereo not given)
inactive: dose: 32.5 mg/kg/injection, schedule: Q01DX005 (ip), vehicle: saline with Tween-80 100 % of control | dose: 65.0 mg/kg/injection, schedule: Q01DX005 (ip), vehicle: saline with Tween-80 100 % of control | dose: 80.0 mg/kg/injection, schedule: Q01DX005 (ip), vehicle: saline with Tween-80 95 % of control | dose: 130.0 mg/kg/injection, schedule: Q01DX005 (ip), vehicle: saline with Tween-80 101 % of control | dose: 160.0 mg/kg/injection, schedule: Q01DX005 (ip), vehicle: saline with Tween-80 104 % of control | dose: 260.0 mg/kg/injection, schedule: Q01DX005 (ip), vehicle: saline with Tween-80 109 % of control

Cc1[nH]nc2c1NC(=O)OC(C)C2 (stereo not given)
inactive: [7] 101 % of control | [8] 101 % of control | dose: 200.0 mg/kg/injection, schedule: Q01DX005 (ip), vehicle: saline with Tween-80 106 % of control

Cc1ccc2nc(CC(=O)c3ccc(F)cc3)c(=O)[nH]c2c1
inactive: [2] 100 % of control | [3] 100 % of control | [9] 107 % of control

S=c1nc(Oc2ccc(-c3ccccc3)cc2)[nH]c(=S)[nH]1
inactive: [2] 87 % of control | [3] 92 % of control | [9] 97 % of control

CC(=O)Cc1ncn(-c2cc(C)on2)n1
inactive: [4] 111 % of control | [5] 113 % of control | [6] 100 % of control

COC1(CO)OCC(O)C(O)C1O (stereo not given)
inactive: dose: 50.0 mg/kg/injection, schedule: Q01DX005 (ip), vehicle: saline 91 % of control | dose: 100.0 mg/kg/injection, schedule: Q01DX005 (ip), vehicle: saline 93 % of control | dose: 200.0 mg/kg/injection, schedule: Q01DX005 (ip), vehicle: saline 101 % of control

N#CC(C(O)c1ccccc1)N1CCCCC1 (stereo not given)
inactive: dose: 50.0 mg/kg/injection, schedule: Q01DX009 (ip), vehicle: suspension in saline 111 % of control | dose: 100.0 mg/kg/injection, schedule: Q01DX009 (ip), vehicle: suspension in saline 100 % of control | dose: 200.0 mg/kg/injection, schedule: Q01DX009 (ip), vehicle: suspension in saline 92 % of control

O=C1c2ccccc2N(Cc2cccc(F)c2)C2=NCCCC12 (stereo not given)
inactive: dose: 50.0 mg/kg/injection, schedule: Q01DX005 (ip), vehicle: Klucel (hydroxypropylcellulose) (HPC) 113 % of control | dose: 100.0 mg/kg/injection, schedule: Q01DX005 (ip), vehicle: Klucel (hydroxypropylcellulose) (HPC) 116 % of control | dose: 200.0 mg/kg/injection, schedule: Q01DX005 (ip), vehicle: Klucel (hydroxypropylcellulose) (HPC) 100 % of control

CCOP(=O)(O)C1CCCC(C)[N-]1.CCOP(=O)(O)C1CCCC(C)[N-]1.CCOP(=O)(O)C1CCCC(C)[N-]1.[Fe+3] (stereo not given)
inactive: dose: 12.5 mg/kg/injection, schedule: Q04DX003 (ip), vehicle: saline 91 % of control | dose: 25.0 mg/kg/injection, schedule: Q04DX003 (ip), vehicle: saline 95 % of control | dose: 50.0 mg/kg/injection, schedule: Q04DX003 (ip), vehicle: saline 94 % of control | [1] 86 % of control

Nc1cccc2[nH]c(=O)c3ccccc3c12
inactive: [2] 93 % of control | [3] 105 % of control | [9] 106 % of control

CC(C)(C)C1CC[N+](=C(O[B-](F)(F)F)c2ccccc2)CC1 (stereo not given)
inactive: [2] 100 % of control | [3] 103 % of control

NC1(C(=O)O)CCCC1C(=O)O (stereo not given)
inactive: dose: 50.0 mg/kg/injection, schedule: Q01DX009 (ip), vehicle: saline 99 % of control | dose: 100.0 mg/kg/injection, schedule: Q01DX009 (ip), vehicle: saline 99 % of control | dose: 200.0 mg/kg/injection, schedule: Q01DX009 (ip), vehicle: saline 90 % of control

O=C(Nc1nccs1)Nc1ccccc1C(F)(F)F
inactive: dose: 25.0 mg/kg/injection, schedule: Q01DX009 (ip), vehicle: Klucel (hydroxypropylcellulose) (HPC) 115 % of control | dose: 50.0 mg/kg/injection, schedule: Q01DX009 (ip), vehicle: Klucel (hydroxypropylcellulose) (HPC) 108 % of control | dose: 100.0 mg/kg/injection, schedule: Q01DX009 (ip), vehicle: Klucel (hydroxypropylcellulose) (HPC) 106 % of control | [10] 92 % of control | dose: 200.0 mg/kg/injection, schedule: Q01DX009 (ip), vehicle: Klucel (hydroxypropylcellulose) (HPC) 111 % of control | dose: 200.0 mg/kg/injection, schedule: Q01DX009 (ip), vehicle: saline with Tween-80 90 % of control | dose: 400.0 mg/kg/injection, schedule: Q01DX009 (ip), vehicle: saline with Tween-80 88 % of control

O=C(O)c1cc(Cc2c[nH]c(=O)[nH]c2=O)ccc1O
inactive: dose: 25.0 mg/kg/injection, schedule: Q01DX005 (ip), vehicle: saline with Tween-80 111 % of control | [7] 111 % of control | [8] 101 % of control

CCC(=O)Nc1ccc(C(=O)C(C)O[N+](=O)[O-])cc1 (stereo not given)
inactive: dose: 25.0 mg/kg/injection, schedule: Q01DX009 (ip), vehicle: saline with Tween-80 98 % of control | dose: 50.0 mg/kg/injection, schedule: Q01DX009 (ip), vehicle: saline with Tween-80 99 % of control | [10] 100 % of control

O=C(NCCc1ccccn1)c1cc(Cl)ccc1O
inactive: dose: 100.0 mg/kg/injection, schedule: Q04DX002 (ip), vehicle: Klucel (hydroxypropylcellulose) (HPC) 95 % of control | dose: 200.0 mg/kg/injection, schedule: Q04DX002 (ip), vehicle: Klucel (hydroxypropylcellulose) (HPC) 103 % of control | dose: 400.0 mg/kg/injection, schedule: Q04DX002 (ip), vehicle: Klucel (hydroxypropylcellulose) (HPC) 100 % of control

CN(C(=O)C(Cl)Cl)c1ccc(-c2csc(-c3ccccc3)n2)cc1
inactive: dose: 100.0 mg/kg/injection, schedule: Q04DX003 (ip), vehicle: Klucel (hydroxypropylcellulose) (HPC) 100 % of control | dose: 200.0 mg/kg/injection, schedule: Q04DX003 (ip), vehicle: Klucel (hydroxypropylcellulose) (HPC) 97 % of control | dose: 400.0 mg/kg/injection, schedule: Q04DX003 (ip), vehicle: Klucel (hydroxypropylcellulose) (HPC) 91 % of control

CCc1cccc(C(C)C)c1NC1=C([n+]2ccc(C)cc2)C(=O)c2ccccc2C1=O
inactive: [2] 117 % of control | [3] 106 % of control | [9] 119 % of control
